# “And” between values parts separate entries of the source, which are not always exact repeats. Equal entries are not always repeated. No end group written: not given here.
# Assays:
# HSV-1 TK^− virus = assay: microbe, parasite or virus in culture; type: cell-based, Herpes Virus Simplex type I; conditions: HSV1 TK^−
# HSV-1 TK^+ virus = assay: microbe, parasite or virus in culture; type: cell-based, Herpes Virus Simplex type I; conditions: HSV1 TK^+
# PV1/Sabin = type: cell-based, polio virus type 1
# CCL39 cells = type: cell-based, hamster; conditions: CCL39, complete medium, no auxiliary agent
# Experimental: CCL39 cells (hamster fibroblasts) (5×10^4 cells) were placed in 24 well culture plates for 18 hours before transfection in MEM+10% FCS (foetal calf serum) culture medium. Transfections were carried out in MEM+10% FCS with no other auxiliary agent (CHLOROQUINE). The peptide-PL and free polylysine PL (corresponding to 19 lysines) were complexed with the pCMVLUC plasmid (respectively 24 μg and 70 μg per 6 μg of plasmid) for 30 minutes. The complex was then added dropwise to the CCL39. After incubating for 5 hours, the medium was replaced with fresh medium. Luciferase expression was assayed 24 hours later. The cells were washed twice with PBS. After washing, the cells were lysed with 100 μl of lyse buffer (PROMEGA) for 10-15 minutes. The cells were then centrifuged for 7 minutes at 4° C. to remove cellular debris. 20 μl of this lysate was mixed with 100 μl of luciferase buffer (PROMEGA). The relative luciferase units (RLU) were recorded on a LUMAT LB9501 (BERTHOLD). The protein concentration was determined using a BIORAD PROTEIN ASSAY-1 kit and the amount of luciferase in each sample was normalised per mg of protein, each transfection being carried out three times.
# CMV Ad169 strain = assay: Inhibition of cytomegalovirus (CMV) replication (morphology, plaque counting, Western blot); type: cell-based
# PV1/Mahoney = type: cell-based, polio virus type 1; conditions: peptide 25 μg/ml, day 5
# PtK2 fibroblasts = assay: Study of the penetration of biotinylated polypeptides into cells (peroxidase coloration); type: cell-based; conditions: after 1 hour of culture, biotinylated polypeptide 5-20 μg/ml
# Experimental: Cultured PtK2 fibroblasts seeded the day before in an amount of 5×10^4 cells per well onto glass sheets, are incubated at 37° C., 1-18 hours in complete RPMI 1640 culture medium (or DMEM) (10% foetal calf serum, 2 mM L-glutamine and 1 mM of sodium pyruvate) containing a biotinylated polypeptide of the invention (5-20 μg/ml) The cells were then washed with PBS and fixed with 2% of p-formaldehyde at 4° C. for 10 minutes then washed with PBS. The cells were then incubated with a solution of streptavidin conjugated with 5 μg/ml of peroxidase in PBS for 30 minutes, then washed with PBS and incubated in the peroxidase cytochemical substrate (diaminobenzidine+H2O2). After washing, the cells were examined microscopically.
# cells in culture = assay: Cell penetration of polypeptide-streptavidin vectors coupled to enzymes; conditions: 2 hours of culture, complete culture medium
# [1] = PV1/Sabin, peptide 25 μg/ml, day 5
# [2] = Day 1, cells pretreated with 25 μg/ml
# [3] = Day 4, cells pretreated with 25 μg/ml
substance,measurement,setting,value
KKKKKKKKKKKKKKKKKKKVAYISRGGVSTYYSDTVKGRFTRQKYNKRA [K19pF4-1],CPE inhibition (AI),"HSV-1 TK^− virus; added H0, 5 μ/well",15
same,CPE inhibition (AI),"HSV-1 TK^− virus; added H0, 10 μ/well",25
same,CPE inhibition (AI),"HSV-1 TK^− virus; added H0, 20 μ/well",42
same,CPE inhibition (AI),"HSV-1 TK^− virus; added H + 1, 5 μ/well",1
same,CPE inhibition (AI),"HSV-1 TK^− virus; added H + 1, 10 μ/well",13
same,CPE inhibition (AI),"HSV-1 TK^− virus; added H + 1, 20 μ/well",1
same,CPE inhibition (AI),"HSV-1 TK^− virus; added H − 1, 5 μ/well",25
same,CPE inhibition (AI),"HSV-1 TK^− virus; added H − 1, 10 μ/well",7
same,CPE inhibition (AI),"HSV-1 TK^− virus; added H − 1, 20 μ/well",47
same,CPE inhibition (AI),"HSV-1 TK^− virus; added H − 2, 5 μ/well",21
same,CPE inhibition (AI),"HSV-1 TK^− virus; added H − 2, 10 μ/well",5
same,CPE inhibition (AI),"HSV-1 TK^− virus; added H − 2, 20 μ/well",25
same,CPE inhibition (AI),"HSV-1 TK^+ virus; added H0, 5 μ/well",13
same,CPE inhibition (AI),"HSV-1 TK^+ virus; added H0, 10 μ/well",30
same,CPE inhibition (AI),"HSV-1 TK^+ virus; added H0, 20 μ/well",28
same,CPE inhibition (AI),"HSV-1 TK^+ virus; added H + 1, 5 μ/well",10
same,CPE inhibition (AI),"HSV-1 TK^+ virus; added H + 1, 10 μ/well",12
same,CPE inhibition (AI),"HSV-1 TK^+ virus; added H + 1, 20 μ/well",10
same,CPE inhibition (AI),"HSV-1 TK^+ virus; added H − 1, 5 μ/well",13
same,CPE inhibition (AI),"HSV-1 TK^+ virus; added H − 1, 10 μ/well",30
same,CPE inhibition (AI),"HSV-1 TK^+ virus; added H − 1, 20 μ/well",28
same,CPE inhibition (AI),"HSV-1 TK^+ virus; added H − 2, 5 μ/well",1
same,CPE inhibition (AI),"HSV-1 TK^+ virus; added H − 2, 10 μ/well",2
same,CPE inhibition (AI),"HSV-1 TK^+ virus; added H − 2, 20 μ/well",7
same,inhibiting effect on type 1 polio virus replication,PV1/Sabin,more than 30 factor
same,LOG (TITER/ML),PV1/Sabin; [1],8
same,TITER REDUCTION FACTOR,PV1/Sabin; [1],32
same,toxicity of the polyplex,3T3 cells,did not induce any toxicity
same,increase of transfection after 24 h with respect to 5 h30,"3T3 cells; 3T3, charge ratio R 4.4",about 1.3 factor
same,luciferase activity,"3T3 cells; 3T3, charge ratio R 4.4, incubating for 5 h30",2-3×10^7 RLU/mg of protein
same,transfection efficacy relative to polylysine alone,CCL39 cells,about 1000 times
same,transfection efficacy (luciferase),"CCL39 cells; 24 μg peptide per 6 μg pCMVLUC, 5 h incubation",2×10^6 RLU/mg of proteins
same,inhibition of infection of cells by CMV,CMV Ad169 strain,~100%
same,"NUMBER OF PLAQUES FORMED, Mean",CMV Ad169 strain; [2],100.0
same,"NUMBER OF PLAQUES FORMED, individual determinations",CMV Ad169 strain; [2],100 and 125 and 75
same,% reduct'n of plaques formed,CMV Ad169 strain; [3],99.5%
same,"NUMBER OF PLAQUES FORMED, Mean",CMV Ad169 strain; [3],166.7
same,"NUMBER OF PLAQUES FORMED, individual determinations",CMV Ad169 strain; [3],0 and 250 (2×)
same,action on CMV proteins (Western blot),CMV Ad169 strain; added to cells after viral adsorption,had no action
same,inhibition of virus replication,"CMV Ad169 strain; cells treated before, and at the same time, as viral infection",99.5%
same,cytopathogenic effects (morphology),CMV Ad169 strain; treated at the end of / after viral adsorption,large
same,appearance of CMV proteins (Western blot),CMV Ad169 strain; treated at the same time as viral infection,no appearance of late proteins was noted
same,cytopathogenic effects (morphology),CMV Ad169 strain; treated before or at the same time as the viral infection,displayed no morphological modifications
same,appearance of CMV proteins (Western blot),CMV Ad169 strain; treated before viral infection,the appearance of neither early proteins nor late proteins of the CMV was noted
same,LOG (TITER/ML),PV1/Mahoney,8.75
same,TITER REDUCTION FACTOR,PV1/Mahoney,8
VAYISRGGVSTYYSDTVKGRFTRQKYNKRA [pF4.1],penetration into cells (peroxidase coloration),PtK2 fibroblasts,penetrated massively and rapidly into the cells
streptavidin: control protein in native form,intracellular detection of the coupled enzymes,cells in culture,no intracellular coloration was observed
